Assay results published in US4988681A, “Phosphinic acid derivatives” (Banyu Pharmaceutical Co., Ltd., priority 1988, dated 1991).

Assays:
[1] = Pharmacokinetic evaluation: plasma concentration in rats; type: in vivo, Male SD rats; conditions: plasma, rat; for AUC: trapezoidal rule; for concentration at 0.5 h: 1/2 h; for concentration at 0.25 h: 1/4 h; for concentration at 5 min: 1/12 h
[2] = biological target: T1, porcine kidney dehydropeptidase I (Sus scrofa, UniProt P22412); test: Inhibitory activity on porcine kidney dehydropeptidase I (DHP-I); type: biochemical; conditions: substrate glycyldehydrophenylalanine, pH 7.4, 37° C., 3 h pre-incubation; read-out: Concentration producing 50% inhibition (IC50)
T1 construct: Frozen porcine kidney cortex was homogenized; from tissue; host or cells: porcine kidney cortex
T1 sequence (P22412 17-409): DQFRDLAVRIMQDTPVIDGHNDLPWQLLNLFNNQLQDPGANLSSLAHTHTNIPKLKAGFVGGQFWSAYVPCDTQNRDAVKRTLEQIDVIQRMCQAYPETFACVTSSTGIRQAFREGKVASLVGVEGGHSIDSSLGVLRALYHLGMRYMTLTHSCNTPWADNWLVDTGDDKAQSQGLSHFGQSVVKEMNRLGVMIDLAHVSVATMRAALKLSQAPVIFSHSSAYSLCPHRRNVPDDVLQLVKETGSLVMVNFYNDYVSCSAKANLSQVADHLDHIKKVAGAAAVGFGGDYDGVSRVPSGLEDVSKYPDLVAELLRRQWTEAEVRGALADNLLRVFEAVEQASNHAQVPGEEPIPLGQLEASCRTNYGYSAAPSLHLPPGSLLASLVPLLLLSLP

[3] = Pharmacokinetic evaluation: plasma concentration in dogs; type: in vivo, Male beagle dogs; conditions: dog; for concentration at 0.5 h: 1/2 h; for concentration at 0.25 h: 1/4 h; for concentration at 5 min: 1/12 h; for AUC: trapezoidal rule
Method: Male beagle dogs (14 month-old) were divided into groups each having three animals. The compound No. 2 was administered intravenously to a first group in a dose of 10 mg/kg. The compound No. 2 was orally administered to a second group in a dose of 10 mg/kg. Then at the points of 1/12, 1/4, 1/2, 1, 2, 4, 6, 8, 24 and 48 hours after the administration, plasma samples were taken periodically from the cephalic vein, and the plasma concentrations of the compounds were measured by an enzyme assay using porcine DHP-I. The results are shown in Table 4-b. The area under the curve (AUC) of the plasma level was determined according to the trapezoidal rule.

[4] = system: nephrotoxicity induced by imipenem; test: Protective action on nephrotoxicity induced by imipenem in rabbits; type: in vivo, male Japanese white rabbits; conditions: compound 150 mg/kg + imipenem 150 mg/kg
Method: (3) Protective action on nephrotoxicity induced by carbapenem antibiotics
Twelve male Japanese white rabbits (18 week-old; body weight 3.19-3.54 kg) were divided into three groups each consisting of 4 animals. Imipenem alone was administered in a dose of 150 mg/kg to a first group. To a second group, a combination of imipenem (150 mg/kg) and the compound No. 2 (150 mg/kg) was administered. To a third group as a control, sterilized physiological saline was administered. In all cases, the administration was effected through the auricular vein. Forty-eight hours later, a blood sample was taken from each of the animals, and the BUN and creatinine values were measured. The kidneys of the rabbits were taken and examined histopathologically.

[5] = Effect on urinary recovery of carbapenem (imipenem) in rats; type: in vivo, Male SD rats; conditions: urine up to 8 hours, n = 3
Method: (2) Effect on urinary recovery of carbapenem
Male SD rats (8 week-old) were grouped, three per group. Imipenem alone was intravenously administered in a dose of 10 mg/kg to a first group. […] For comparison, a combination of imipenem (10 mg/kg) and cilastatin (10 mg/kg) was intravenously administered to a fourth group.
The urinary recovery of imipenem was calculated.

[6] = iv 10 mg/kg (cilastatin dose not given)

CC(C)CP(=O)(O)C/C(=C\C1CCCCC1)C(=O)O [Compound No. 2, (Z)-3-cyclohexyl-2-(hydroxyisobutylphosphinoyl)methylpropenoic acid]
AUC [1, 6]: 162000 ng·h/mL
AUC ([1]; po 10 mg/kg): 24300 ng·h/mL
concentration at 0.5 h [1, 6]: 53700 ng/mL
concentration at 0.25 h [1, 6]: 60700 ng/mL
concentration at 5 min [1, 6]: 84900 ng/mL
concentration at 1 h ([1]; iv 10 mg/kg (cilastatin dose not given), N.D.: below the detection limit): 42400 ng/mL
concentration at 2 h ([1]; iv 10 mg/kg): 21800 ng/mL
concentration at 4 h ([1]; iv 10 mg/kg): 10500 ng/mL
concentration at 6 h ([1]; iv 10 mg/kg, N.D.: below the detection limit): 5400 ng/mL
concentration at 8 h ([1]; iv 10 mg/kg): 2500 ng/mL
concentration at 0.5 h ([1]; po 10 mg/kg): 6800 ng/mL
concentration at 0.25 h ([1]; po 10 mg/kg): 6600 ng/mL
concentration at 5 min ([1]; po 10 mg/kg): 3300 ng/mL
concentration at 1 h ([1]; po 10 mg/kg): 5400 ng/mL
concentration at 2 h ([1]; po 10 mg/kg): 3800 ng/mL
concentration at 4 h ([1]; po 10 mg/kg): 2100 ng/mL
concentration at 6 h ([1]; po 10 mg/kg): 1200 ng/mL
concentration at 8 h ([1]; po 10 mg/kg, N.D.: below the detection limit): 400 ng/mL
IC50 [2]: 13 nM
concentration at 0.5 h ([3]; iv 10 mg/kg): 52200 ng/mL
concentration at 0.25 h ([3]; iv 10 mg/kg): 71000 ng/mL
concentration at 5 min ([3]; iv 10 mg/kg): 87300 ng/mL
concentration at 1 h ([3]; iv 10 mg/kg): 40800 ng/mL
concentration at 2 h ([3]; iv 10 mg/kg): 24500 ng/mL
concentration at 4 h ([3]; iv 10 mg/kg): 6700 ng/mL
concentration at 6 h ([3]; iv 10 mg/kg): 2400 ng/mL
concentration at 8 h ([3]; iv 10 mg/kg): 1200 ng/mL
concentration at 24 h ([3]; iv 10 mg/kg): 100 ng/mL
AUC ([3]; iv 10 mg/kg): 144000 ng·h/mL
concentration at 0.5 h ([3]; po 10 mg/kg): 5800 ng/mL
concentration at 0.25 h ([3]; po 10 mg/kg): 3000 ng/mL
concentration at 5 min ([3]; po 10 mg/kg): 500 ng/mL
concentration at 1 h ([3]; po 10 mg/kg): 9600 ng/mL
concentration at 2 h ([3]; po 10 mg/kg): 7800 ng/mL
concentration at 4 h ([3]; po 10 mg/kg): 3100 ng/mL
concentration at 6 h ([3]; po 10 mg/kg): 1600 ng/mL
concentration at 8 h ([3]; po 10 mg/kg): 700 ng/mL
concentration at 24 h ([3]; po 10 mg/kg): 700 ng/mL
AUC ([3]; po 10 mg/kg): 51500 ng·h/mL
Necrosis of the kidney tissue, number of rabbits which necrotized versus number tested [4]: 0/4
BUN ([4]; auricular vein, 48 hours): 16.2 mg/100 ml
Creatinine ([4]; auricular vein, 48 hours): 1.49 mg/dL
Necrosis of the kidney tissue ([4]; grade in words): None
Urinary recovery of imipenem, Mean ± S.D. ([5]; inhibitor 10 mg/kg iv with imipenem 10 mg/kg iv): 95.3 ± 6.1%
Urinary recovery of imipenem, Mean ± S.D. ([5]; inhibitor 10 mg/kg po 30 minutes before imipenem 10 mg/kg iv): 52.1 ± 4.9%
